In data set [1] the target is sigma-1 receptors (Homo sapiens (Human), UniProt Q99720). Briefly: biochemical. The format is binding.
Data set [2] in a line: Drug stability in human liver microsomes. The format is in vitro ADME. The text has this: Testing of Drug Stability in Human Liver Microsomes
This assay involves exposing a test compound to vesicles which contain the contents of digestive organelles (endoplasmic reticula) derived from human liver cells. The tests were done by Microconstants Inc., San Diego, Calif., using methods substantially as described in J. R. Hill, “In vitro drug metabolism using liver microsomes,” Curr. Protocols Pharmacol., Chapter 7, Unit 7.8 (2004), John Wiley & Sons, Inc.
The results, in Table 1 below, indicate the percentage decomposition of the test compound after 1 hour. […] Although degraded as rapidly, or even more rapidly than DM, other compounds remain of interest due to their receptor binding activities, as detailed further below.

The target in data set [3] is phencyclidine site of NMDA-type glutamate receptors. Description: NMDA receptor (phencyclidine site) radioligand binding inhibition. How it is done:
In vitro binding assays for the phencyclidine site of NMDA-type glutamate receptors, and for sigma-1 receptors, both of which are known to be bound by DM, were conducted by Sekisui Medical Co., Ltd. of Ibaraki, Japan. In these assays, DM acts as an antagonist at NMDA receptors, which are excitatory in their effects, thereby allowing DM to reduce, calm, and modulate unwanted neuronal activity in neuronal networks that are activated by glutamate agonist activity at NMDA receptors. DM acts as an agonist at sigma-1 receptors, which are inhibitory receptors, thereby allowing DM to reduce unwanted neuronal activity by a second mechanism. Assays for sigma-1 and NMDA (phencyclidine site) receptor affinities, based on inhibition of radioligand binding, provided the results shown in Table 2 below.

Data set [4] can be described thus: Caco-2 bidirectional permeability assay. The format is in vitro ADME. Set-up: Papp A→B / Papp B→A: dose or concentration left out as unconfirmed. Conditions: human. The text has this:
The human colon carcinoma cell Caco-2 provides a well-established and effective model for predicting intestinal absorption of chemicals, and in determining the mechanism of transport. […] The method is used to assess the bidirectional permeability of a test compound, from the apical to the basolateral side (A-B) of a Caco-2 cell monolayer membrane, and vice versa (B-A). R. B. van Breemen, Y. Li, “Caco-2 cell permeability assays to measure drug absorption,” Expert Opin. Drug Metab. […] The transport rate of a compound across the monolayer is highly predictive of the in vivo absorption of the compound across the gut wall, and the Caco-2 permeability assay is an FDA-recommended method for evaluating the absorption of orally-administered drugs. Results of this assay for selected reference drugs and compounds of the invention are set out in Table 3.

For data set [5], the target named is human recombinant hERG (Homo sapiens (Human), UniProt Q12809). Description: hERG radioligand (3H-astemizole) binding assay. The text has this: Cardiac Potassium Channel (hERG) Assays
human recombinant hERG, sequence (Q12809 whole entry, looked up): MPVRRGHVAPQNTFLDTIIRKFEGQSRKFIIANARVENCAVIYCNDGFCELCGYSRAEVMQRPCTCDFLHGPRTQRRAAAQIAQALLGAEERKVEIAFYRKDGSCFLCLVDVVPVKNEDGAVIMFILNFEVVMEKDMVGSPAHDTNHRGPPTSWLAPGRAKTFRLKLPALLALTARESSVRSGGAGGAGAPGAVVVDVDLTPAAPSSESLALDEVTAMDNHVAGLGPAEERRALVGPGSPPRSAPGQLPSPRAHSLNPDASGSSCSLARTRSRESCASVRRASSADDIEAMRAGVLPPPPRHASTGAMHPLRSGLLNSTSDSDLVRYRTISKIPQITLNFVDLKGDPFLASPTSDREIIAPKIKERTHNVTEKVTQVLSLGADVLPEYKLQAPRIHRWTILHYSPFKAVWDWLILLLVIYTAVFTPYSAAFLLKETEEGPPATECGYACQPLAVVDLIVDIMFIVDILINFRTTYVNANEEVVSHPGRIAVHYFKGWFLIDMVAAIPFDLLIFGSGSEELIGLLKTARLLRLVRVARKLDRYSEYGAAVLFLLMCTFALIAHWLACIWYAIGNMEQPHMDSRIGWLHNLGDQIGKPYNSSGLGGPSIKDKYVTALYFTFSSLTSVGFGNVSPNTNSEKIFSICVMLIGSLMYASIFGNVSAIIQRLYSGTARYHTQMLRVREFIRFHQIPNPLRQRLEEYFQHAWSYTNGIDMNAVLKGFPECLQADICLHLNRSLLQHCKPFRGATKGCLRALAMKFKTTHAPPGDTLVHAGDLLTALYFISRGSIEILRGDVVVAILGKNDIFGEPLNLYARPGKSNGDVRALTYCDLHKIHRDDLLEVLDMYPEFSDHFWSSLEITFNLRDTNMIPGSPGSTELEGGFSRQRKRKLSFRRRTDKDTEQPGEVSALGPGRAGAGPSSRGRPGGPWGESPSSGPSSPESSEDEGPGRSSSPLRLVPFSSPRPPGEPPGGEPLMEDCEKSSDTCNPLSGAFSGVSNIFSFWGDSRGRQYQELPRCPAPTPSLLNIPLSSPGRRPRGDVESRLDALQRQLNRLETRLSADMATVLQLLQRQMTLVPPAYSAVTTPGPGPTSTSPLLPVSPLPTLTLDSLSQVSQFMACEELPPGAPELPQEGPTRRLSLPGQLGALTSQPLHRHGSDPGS
The human ether-a-go-go related gene (hERG) encodes the inward-rectifying voltage-gated potassium channel (IKr) in the heart, which is involved in cardiac repolarization. Inhibition of the hERG current causes QT interval prolongation, potentially resulting in ventricular tachyarrhythmia, and the detection of this potential liability is desirable at an early stage of drug discovery.

Data set [6] has as its target κ opioid receptor (Homo sapiens (Human), UniProt P41145). Description: biochemical. Conditions: 3H-diprenorphine binding; for pIC50: read-out: Opiate κ IC50; for pKi: read-out: Opiate κ Ki.
The target of data set [7] is μ opioid receptor (Homo sapiens (Human), UniProt P35372). Description: μ opioid receptor radioligand (3H-diprenorphine) binding assay.
Data set [8] addresses human serotonin transporter (Homo sapiens (Human), UniProt P31645). Briefly: biochemical. Conditions: 3H-imipramine binding, HEK-293 membranes; for pIC50: read-out: SERT IC50; for pKi: read-out: SERT Ki. From the text:
Serotonin Transporter (SERT) Assay
The serotonin transporter (SERT) is a monoamine transporter protein that transports serotonin from the synaptic cleft back to the presynaptic neuron (serotonin reuptake.) Serotonin modulates emotional states in humans, and inhibition of SERT activity is the basis for the SSRI class of antidepressants.

The conditions of data set [9]: cited from earlier work.
The mark [10] stands for this setting: inhibition of radioligand binding, read-out: Sigma-1 Ki.
[11] abbreviates: inhibition of radioligand binding, read-out: Sigma-1 IC50.

Each structure is given as a SMILES string. pIC50, pKi: −log10 of the molar value. Like-named read-outs stand apart in the source and are kept apart here.

sigma-1 receptors, sequence (Q99720 whole entry, looked up): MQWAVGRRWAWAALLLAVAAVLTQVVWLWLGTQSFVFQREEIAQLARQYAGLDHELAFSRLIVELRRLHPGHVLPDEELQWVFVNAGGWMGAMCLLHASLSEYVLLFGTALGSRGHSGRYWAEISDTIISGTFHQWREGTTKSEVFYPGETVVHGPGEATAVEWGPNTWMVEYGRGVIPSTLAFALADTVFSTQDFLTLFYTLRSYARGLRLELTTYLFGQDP

In data set [1], `COc1cc2c(cc1Br)CC1C3CCCC[C@@]23CCN1C` (stereo partly drawn) [CNS7-M] had a negative logarithm of the IC50 (pIC50) of less than 5.00.
`C=CCN(C)CC[C@@]12CCCC[C@@H]1C=Cc1ccc(OC)cc12` [CNS22] displayed a half-life in data set [2] of 36 min. In data set [1], the pIC50 was 7.54 and the negative-log Ki (pKi) was 7.69.
For `[2H]C([2H])(Oc1ccc2c(c1)[C@]13CCCC[C@@H]1[C@H](C2)N(C([2H])([2H])[2H])CC3)C(F)F` [CNS1-D5, (1S,9S,10S)-4-(1,1-dideuterio-2,2-difluoroethoxy)-17-(trideuteriomethyl)-17-azatetracyclo[7.5.3.0^1,10.0^2,7]-heptadeca-2,4,6-triene], in [2], the half-life was greater than 240 min. The “% decomposition at 1 hour” value in [2] was determined as 9.7%. Moreover, the negative logarithm of the Ki (pKi) in data set [1] (setting [10]) is 7.66; in [3], 5.00; in [5], 5.13; in data set [6] it was 4.92; in data set [7] it was 5.00; in data set [8] it was 7.58. In data set [4] (apical to basolateral), the Papp A→B at 0.1 μM worked out at 14.4 ×10⁻⁶ cm/s. In [4] (basolateral to apical), this compound came in with a Papp B→A at 0.1 μM of 12.5 ×10⁻⁶ cm/s. The compound further came in with a Papp A→B at 1 μM in data set [4] (apical to basolateral) of 18.4 ×10⁻⁶ cm/s. This compound displayed a Papp B→A at 1 μM in data set [4] (basolateral to apical) of 15.4 ×10⁻⁶ cm/s. Further, the negative logarithm of the IC50 (pIC50) in data set [5] is 4.46; in [6], 4.53; in data set [7], 4.26; in data set [8], 7.36.
Consider `[2H]C([2H])(Oc1ccc2c(c1)[C@]13CCCC[C@@H]1[C@H](C2)N(CCOC)CC3)C(F)F` [CNS27-D2, (1S,9S,10S)-4-(1,1-dideuterio-2,2-difluoro-ethoxy)-17-(2-methoxyethyl)-17-azatetracyclo[7.5.3.0^1,10.0^2,7]-heptadeca-2,4,6-triene], for which the pKi is 8.80 in [1] (setting [10]); less than 4.64 in [3]; 5.32 in data set [5]; 4.94 in data set [6]; 4.64 in data set [7]; 5.80 in data set [8]. This compound also had a Papp A→B at 0.1 μM in [4] (apical to basolateral) of 10.2 ×10⁻⁶ cm/s. The Papp B→A at 0.1 μM in [4] (basolateral to apical) was determined as 9.76 ×10⁻⁶ cm/s. The Papp A→B at 1 μM in data set [4] (apical to basolateral) turned out to be 11.6 ×10⁻⁶ cm/s. For the same compound, the Papp B→A at 1 μM in data set [4] (basolateral to apical) is 13.1 ×10⁻⁶ cm/s. Also, the pIC50 in data set [5] is 4.65; in data set [6], 4.54; in [7] it was 3.91; in data set [8] it was 5.57.
In the case of `Cc1ccc2c(c1)[C@]13CCCC[C@@H]1[C@H](C2)N(C)CC3` [Dimemorphan (DIM), reference compound], the t1/2 in data set [2] was 22 min. Also, the pIC50 was 6.28 in data set [1] (setting [11]) and less than 4.52 in data set [3]. Besides, the pKi in data set [1] (setting [10]) is 6.43.
Regarding `CN1CC[C@@]23CCCC[C@@H]2[C@@H]1Cc1ccc(O)c(Br)c13` [CNS6, (1S,9S,10S)-3-bromo-4-hydroxy-17-methyl-17-azatetracyclo[7.5.3.0^1,10.0^2,7]-heptadeca-2(7),3,5-triene], the “% decomposition at 1 hour” value in [2] stood at 56%. For the same compound, the pIC50 in [1] (setting [11]) is 6.76; in [3], less than 4.52. In data set [1] (setting [10]), the pKi was 6.92.
Consider `COc1ccc2c(c1)[C@]13CCCC[C@@H]1[C@H](C2)N(C)CC3` [Dextromethorphan (DM), 3-methoxy-17-methyl-(9α,13α,14α)-morphinan, reference compound], for which, in data set [2], the half-life was found to be 35 min and the “% decomposition at 1 hour” value is on record as 69%. In data set [1], the pIC50 was 6.86 and the pKi is 7.02. In data set [3], this compound had a pIC50 of 5.17 and a pKi of 5.34. For the same compound, in data set [4] (apical to basolateral), the Papp A→B at 0.1 μM turned out to be 15.9 ×10⁻⁶ cm/s and the Papp A→B at 1 μM was determined as 19 ×10⁻⁶ cm/s. In data set [4] (basolateral to apical), this compound returned a Papp B→A at 0.1 μM of 10.8 ×10⁻⁶ cm/s and a Papp B→A at 1 μM of 14.2 ×10⁻⁶ cm/s. Besides, in [5], the pIC50 is 4.31 and the pKi is 4.97. In addition, in [7], the pIC50 was 4.29 and the pKi was 5.02. Further, the plasma levels result in [9] (fast metabolizers, 30 mg dose, four hours post ingestion) is on record as “less than 5 ng/ml”. In data set [9] (poor metabolizers, oral dose of 30 mg, at 24 hours), the plasma levels result was “above 5 ng/ml”.
`CC(C)NCC(O)COc1cccc2ccccc12` (stereo not drawn) [Propranolol, reference compound] registered a Papp A→B in data set [4] (apical to basolateral) of 21.2 ×10⁻⁶ cm/s. Moreover, in data set [4] (basolateral to apical), the Papp B→A was 39 ×10⁻⁶ cm/s.
As for `CN1CC[C@@]23CCCC[C@@H]2C1Cc1ccc(OCC(F)F)cc13` [CNS1], in data set [2], the “rate of metabolism and degradation compared with DM” value was “metabolized and degraded less rapidly than DM”; the “% decomposition at 1 hour” value is 6.1%.
In turn, `CN1CC[C@@]23CCCCC2C1Cc1ccc(OCC(F)F)c(Br)c13` (stereo partly drawn) [CNS6-A1-D2] showed a t1/2 in [2] of 60 min. The pIC50 in data set [1] (setting [11]) is 7.66; in data set [3], less than 4.52. Further, the negative-log Ki (pKi) in [1] (setting [10]) was 7.82.
Take `[2H]C([2H])(Oc1ccc2c(c1)[C@]1(CCN(C)CC=C)CCCC[C@@H]1C=C2)C(F)F` [CNS23-D2]: the half-life in [2] was 32 min. In addition, the pIC50 in data set [1] (setting [11]) was 7.95. Moreover, the pKi in data set [1] (setting [10]) is 8.11.
In the case of `[2H]C([2H])(Oc1ccc2c(c1)[C@]13CCCC[C@@H]1[C@H](C2)N(C)CC3)C(F)F` [CNS1-D2, (1S,9S,10S)-4-(1,1-dideuterio-2,2-difluoroethoxy)-17-methyl-17-azatetracyclo[7.5.3.0^1,10.0^2,7]heptadeca-2(7),3,5-triene], the half-life in data set [2] was 123 min. The results for the pIC50 in data set [1] (setting [11]) and in data set [3] were 7.24 and less than 4.52, respectively. In addition, the pKi in [1] (setting [10]) is 7.39.
In data set [2], `[2H]C([2H])(Oc1ccc2c(c1)[C@]13CCCC[C@@H]1[C@H](C2)NCC3)C(F)F` [N-desmethyl CNS1-D2, (1S,9S,10S)-4-(1,1-dideuterio-2,2-difluoro-ethoxy)-17-azatetracyclo[7.5.3.0^1,10.0^2,7]heptadeca-2,4,6-triene] yielded a half-life greater than 240 min. Further, the “% decomposition at 1 hour” value in data set [2] was 10.1%. For the same compound, the pKi is 7.15 in [1] (setting [10]); 5.51 in data set [3]; 5.24 in [5]; 4.82 in data set [6]; 4.58 in data set [7]; 6.55 in data set [8]. The Papp A→B at 0.1 μM in data set [4] (apical to basolateral) is 9.71 ×10⁻⁶ cm/s. Besides, the apparent permeability from basolateral to apical (Papp B→A) at 0.1 μM in data set [4] (basolateral to apical) is 6.33 ×10⁻⁶ cm/s. Moreover, in data set [4] (apical to basolateral), the Papp A→B at 1 μM worked out at 10.8 ×10⁻⁶ cm/s. Besides, the apparent permeability from basolateral to apical (Papp B→A) at 1 μM in data set [4] (basolateral to apical) is 10.1 ×10⁻⁶ cm/s. The pIC50 in data set [5] was 4.58; in data set [6], 4.42; in data set [7] it was 3.85; in data set [8] it was 6.33.
For the compound `COc1ccc2c(c1)[C@]13CCCCC1C(C2)N(Cc1cccnc1)CC3` (stereo partly drawn) [CNS10], the “% decomposition at 1 hour” value in data set [2] amounted to 98.4%.
Regarding `CN1CC[C@@]23CCCC[C@@H]2[C@@H]1Cc1ccc(O)cc13` [Dextorphan (DX), reference compound], the negative logarithm of the IC50 (pIC50) in [1] (setting [11]) was 6.59; in data set [3], 5.82. Moreover, the pKi in data set [1] (setting [10]) was 6.74; in [3], 5.95.
Turning to `CN1CC[C@@]23CCCC[C@@H]2[C@@H]1Cc1ccc(OCc2ccncc2)cc13` [CNS4], the “% decomposition at 1 hour” value in [2] was determined as 100%.
For the compound `COc1ccc2c(c1Br)[C@]13CCCCC1[C@H](C2)N(C)CC3` (stereo partly drawn) [CNS6-A2], the pIC50 in [1] (setting [11]) was 6.61.
For the compound `CN1CC[C@@]23CCCC[C@@H]2[C@@H]1Cc1ccc(OCC(F)(F)F)cc13` [CNS-222, (1S,9S,10S)-4-(2,2,2-trifluoroethoxy)-17-methyl-17-azatetracyclo[7.5.3.0^1,10.0^2,7]heptadeca-2(7),3,5-triene], in data set [1] (setting [11]), the pIC50 was 7.30.
With `CN1CC[C@@]23CCCC[C@@H]2C1Cc1ccc(OCCF)cc13` [CNS2], in data set [2], the “rate of metabolism and degradation compared with DM” value is “metabolized and degraded less rapidly than DM”; the “% decomposition at 1 hour” value was determined as 15.4%.
